{
  "source": "patent US20180252712A1",
  "about": "“RECEPTOR FOR NOROVIRUS AND USES THEREOF” (priority 2017, published 2018)",
  "key": {"[1]": {"test_system": "MNoV^CW3", "assay": "MNoV binding assay to BV2 cells (bound genomes by qPCR)", "assay_type": "cell-based, murine norovirus", "conditions": "wild type or CD300lf-mutant BV2 cells, 1 μg/ml kifunensine", "procedure": "MNoV^CW3 quantitiatve PCR (qPCR) was performed as previously described. Briefly, 5 μl of extracted viral RNA was used for cDNA synthesis using random hexamers and ImProm Reverse Transcriptase (Promega, Madison, Wis.) in 20 μl total volume. TaqMan qPCR was performed in triplicate on each sample and standard with forward primer SEQ ID NO:20 (5′ […] 3′), reverse primer SEQ ID NO:21 (5′ GCGCTGCGCCATCACTC 3′), and probe.\nMNoV^CW3 binding to BV2 cells was performed for 1 hour at 4° C. in 0.5 ml complete growth media. sCD300lf was incubated with MNoV^CW3 for 30 minutes at room temperature prior to addition to cells. α-CD300lf was incubated with cells for 30 minutes at 4° C. prior to the addition of MNoV^CW3. BV2 cells were used at final concentration of 2×10^6 cells/ml, and MNoV^CW3 was used at a final concentration of 1.6×10^9 copies/ml (2.5×10^6 PFU/ml). Cells were centrifuged at 500 g for 5 min at 4° C. to remove unbound virus. Cells were washed with four 1.0 ml washes with PBS containing 2.5% FBS and 2 mM EDTA. The cell pellet was resuspended in 100 μl PBS, and RNA was extracted with the ZR Viral RNA kit (Zymo Research) according to manufacturer instructions. qPCR was performed as described above. Binding experiments were done in triplicate in each of at least three independent experiments. A condition containing virus but no cells was used to determine assay background.\n(§1) To determine the effect of glycans on MNoV binding, parental BV2 cells, ΔCD300lf BV2 clone 1 cells complemented with an empty lentivirus, and ΔCD300lf BV2 clone 1 cells complemented with CD300lf were cultured in the presence of 1 μg/ml of kifunensine (Santa Cruz Biotechnology) for at least 48 hours prior to use. Kifunensine activity was determined by staining cells with FITC-conjugated wheat germ agglutinin (WGA) at 1 μg/ml final concentration (Sigma Aldrich). The reduction in glycosylation was determined by comparing the mean fluorescence intensity (MFI) with and without kifunensine treatment. WGA binding was determined at the time of each binding assay."}, "[2]": {"test_system": "BV2 cells", "assay": "Kifunensine treatment, WGA-FITC staining of cell surface carbohydrates", "assay_type": "cell-based, mouse", "conditions": "1 μg/ml kifunensine for at least 48 hours", "procedure": "as §1"}},
  "data": [
    {"smiles": "O=C1N[C@@H]2[C@@H](O)[C@@H](O)[C@H](O)[C@@H](CO)N2C1=O", "note": "[kifunensine]", "values": [
      {"measurement": "MNoV^CW3 binding to kifunensine treated cells", "setting": "[1]", "result": "did not significantly alter MNoV^CW3 binding"},
      {"measurement": "Cell surface carbohydrates (WGA-FITC binding, MFI)", "setting": "[2]", "result": "significantly reduced cell surface carbohydrates"}
    ]}
  ]
}
